# Test results reported in PubChem BioAssay (NCI).
#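 1) Cells in 96-well plates. 2) Compound, 48 h, 5 concentrations. 3) Linear interpolation between surrounding doses. 4) Unreached endpoint = highest concentration. GI50 is the concentration that inhibits growth by half. Definition used: TGI = concentration required for complete inhibition of growth.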
# Key:
# Assay in all cases: NCI-60 cell line screen, 48 h
# NCI-H460 lung = system: NCI-H460 lung
# HT29 colon = system: HT29 colon
# ACHN renal = system: ACHN renal
# MDA-MB-231 breast = system: MDA-MB-231 breast
# OVCAR-5 ovarian = system: OVCAR-5 ovarian
# OVCAR-8 ovarian = system: OVCAR-8 ovarian
# SNB-19 CNS = system: SNB-19 CNS
# LOX IMVI melanoma = system: LOX IMVI melanoma
# SF-268 CNS = system: SF-268 CNS
# NCI/ADR-RES ovarian = system: NCI/ADR-RES ovarian
# NCI-H226 lung = system: NCI-H226 lung
# OVCAR-4 ovarian = system: OVCAR-4 ovarian
# A498 renal = system: A498 renal
# U251 CNS = system: U251 CNS
# SW-620 colon = system: SW-620 colon
# SK-OV-3 ovarian = system: SK-OV-3 ovarian
# SNB-75 CNS = system: SNB-75 CNS
# HS 578T breast = system: HS 578T breast
# EKVX NSCLC = system: EKVX NSCLC
# IGROV1 ovarian = system: IGROV1 ovarian
# TK-10 renal = system: TK-10 renal
# PC-3 prostate = system: PC-3 prostate
# SK-MEL-28 melanoma = system: SK-MEL-28 melanoma
# HOP-92 NSCLC = system: HOP-92 NSCLC
# RXF 393 renal = system: RXF 393 renal
# A549 NSCLC = system: A549 NSCLC
# UACC-62 melanoma = system: UACC-62 melanoma
# SK-MEL-5 melanoma = system: SK-MEL-5 melanoma
# OVCAR-3 ovarian = system: OVCAR-3 ovarian
# NCI-H23 lung = system: NCI-H23 lung
# HCT-15 colon = system: HCT-15 colon
# SF-295 CNS = system: SF-295 CNS
# UO-31 renal = system: UO-31 renal
# SN12C renal = system: SN12C renal
# MALME-3M melanoma = system: MALME-3M melanoma
# CCRF-CEM leukemia = system: CCRF-CEM leukemia
# HOP-62 NSCLC = system: HOP-62 NSCLC
# UACC-257 melanoma = system: UACC-257 melanoma
# NCI-H522 lung = system: NCI-H522 lung
# RPMI-8226 leukemia = system: RPMI-8226 leukemia
# HCC-2998 colon = system: HCC-2998 colon
# SR leukemia = system: SR leukemia
# KM12 colon = system: KM12 colon
# SF-539 CNS = system: SF-539 CNS
# HL-60(TB) leukemia = system: HL-60(TB) leukemia
# K-562 leukemia = system: K-562 leukemia
# SK-MEL-2 melanoma = system: SK-MEL-2 melanoma
# MCF7 breast = system: MCF7 breast
# MDA-MB-435 = system: MDA-MB-435
# T-47D breast = system: T-47D breast
# MOLT-4 leukemia = system: MOLT-4 leukemia
# COLO 205 colon = system: COLO 205 colon
# BT-549 breast = system: BT-549 breast
# M14 melanoma = system: M14 melanoma
# CAKI-1 renal = system: CAKI-1 renal
# 786-0 renal = system: 786-0 renal
# HCT-116 colon = system: HCT-116 colon
# DU-145 prostate = system: DU-145 prostate
smiles,measurement,setting,value
CC1=CC(=O)CC(C)(C)[C@@]1(O)/C=C/C(C)=C\C(=O)O,GI50,NCI-H460 lung,132 nM
same,TGI,NCI-H460 lung,336 nM
same,GI50,HT29 colon,157 nM
same,TGI,HT29 colon,585 nM
same,GI50,ACHN renal,489 nM
same,TGI,ACHN renal,2380 nM
same,GI50,MDA-MB-231 breast,1140 nM
same,TGI,MDA-MB-231 breast,3550 nM
same,GI50,OVCAR-5 ovarian,840 nM
same,TGI,OVCAR-5 ovarian,2980 nM
same,GI50,OVCAR-8 ovarian,527 nM
same,TGI,OVCAR-8 ovarian,3150 nM
same,GI50,SNB-19 CNS,254 nM
same,TGI,SNB-19 CNS,2280 nM
same,GI50,LOX IMVI melanoma,129 nM
same,TGI,LOX IMVI melanoma,432 nM
same,GI50,SF-268 CNS,793 nM
same,TGI,SF-268 CNS,2820 nM
same,GI50,NCI/ADR-RES ovarian,1010 nM
same,TGI,NCI/ADR-RES ovarian,3760 nM
same,GI50,NCI-H226 lung,148 nM
same,TGI,NCI-H226 lung,499 nM
same,GI50,OVCAR-4 ovarian,131 nM
same,TGI,OVCAR-4 ovarian,464 nM
same,GI50,A498 renal,115 nM
same,TGI,A498 renal,374 nM
same,GI50,U251 CNS,224 nM
same,TGI,U251 CNS,2260 nM
same,GI50,SW-620 colon,285 nM
same,TGI,SW-620 colon,2200 nM
same,GI50,SK-OV-3 ovarian,284 nM
same,TGI,SK-OV-3 ovarian,2220 nM
same,GI50,SNB-75 CNS,517 nM
same,TGI,SNB-75 CNS,1130 nM
same,GI50,HS 578T breast,209 nM
same,TGI,HS 578T breast,1570 nM
same,GI50,EKVX NSCLC,250 nM
same,TGI,EKVX NSCLC,2290 nM
same,GI50,IGROV1 ovarian,157 nM
same,TGI,IGROV1 ovarian,946 nM
same,GI50,TK-10 renal,471 nM
same,TGI,TK-10 renal,2740 nM
same,GI50,PC-3 prostate,347 nM
same,TGI,PC-3 prostate,3460 nM
same,GI50,SK-MEL-28 melanoma,172 nM
same,TGI,SK-MEL-28 melanoma,669 nM
same,GI50,HOP-92 NSCLC,566 nM
same,TGI,HOP-92 NSCLC,2980 nM
same,GI50,RXF 393 renal,114 nM
same,TGI,RXF 393 renal,327 nM
same,GI50,A549 NSCLC,408 nM
same,TGI,A549 NSCLC,3500 nM
same,GI50,UACC-62 melanoma,545 nM
same,TGI,UACC-62 melanoma,1370 nM
same,GI50,SK-MEL-5 melanoma,111 nM
same,TGI,SK-MEL-5 melanoma,252 nM
same,GI50,OVCAR-3 ovarian,148 nM
same,TGI,OVCAR-3 ovarian,478 nM
same,GI50,NCI-H23 lung,376 nM
same,TGI,NCI-H23 lung,2230 nM
same,GI50,HCT-15 colon,153 nM
same,TGI,HCT-15 colon,777 nM
same,GI50,SF-295 CNS,749 nM
same,TGI,SF-295 CNS,2320 nM
same,GI50,UO-31 renal,608 nM
same,TGI,UO-31 renal,2300 nM
same,GI50,SN12C renal,894 nM
same,TGI,SN12C renal,3900 nM
same,GI50,MALME-3M melanoma,104 nM
same,TGI,MALME-3M melanoma,329 nM
same,GI50,CCRF-CEM leukemia,196 nM
same,TGI,CCRF-CEM leukemia,> 50000 nM
same,GI50,HOP-62 NSCLC,159 nM
same,TGI,HOP-62 NSCLC,1050 nM
same,GI50,UACC-257 melanoma,534 nM
same,TGI,UACC-257 melanoma,2520 nM
same,GI50,NCI-H522 lung,115 nM
same,TGI,NCI-H522 lung,359 nM
same,GI50,RPMI-8226 leukemia,174 nM
same,TGI,RPMI-8226 leukemia,644 nM
same,GI50,HCC-2998 colon,139 nM
same,TGI,HCC-2998 colon,430 nM
same,GI50,SR leukemia,155 nM
same,TGI,SR leukemia,> 50000 nM
same,GI50,KM12 colon,210 nM
same,TGI,KM12 colon,1560 nM
same,GI50,SF-539 CNS,206 nM
same,TGI,SF-539 CNS,1290 nM
same,GI50,HL-60(TB) leukemia,127 nM
same,TGI,HL-60(TB) leukemia,309 nM
same,GI50,K-562 leukemia,164 nM
same,TGI,K-562 leukemia,> 50000 nM
same,GI50,SK-MEL-2 melanoma,923 nM
same,TGI,SK-MEL-2 melanoma,2310 nM
same,GI50,MCF7 breast,165 nM
same,TGI,MCF7 breast,1360 nM
same,GI50,MDA-MB-435,182 nM
same,TGI,MDA-MB-435,738 nM
same,GI50,T-47D breast,340 nM
same,TGI,T-47D breast,2220 nM
same,GI50,MOLT-4 leukemia,152 nM
same,TGI,MOLT-4 leukemia,> 50000 nM
same,GI50,COLO 205 colon,204 nM
same,TGI,COLO 205 colon,950 nM
C#Cc1nc(/C=C/C(=O)NO)cs1,GI50,BT-549 breast,2630 nM
same,TGI,BT-549 breast,6740 nM
same,GI50,NCI-H460 lung,3150 nM
same,TGI,NCI-H460 lung,19400 nM
same,GI50,HT29 colon,2340 nM
same,TGI,HT29 colon,5700 nM
same,GI50,ACHN renal,2510 nM
same,TGI,ACHN renal,7100 nM
same,GI50,MDA-MB-231 breast,2880 nM
same,TGI,MDA-MB-231 breast,7820 nM
same,GI50,M14 melanoma,3150 nM
same,TGI,M14 melanoma,15000 nM
same,GI50,OVCAR-5 ovarian,2340 nM
same,TGI,OVCAR-5 ovarian,6110 nM
same,GI50,OVCAR-8 ovarian,2240 nM
same,TGI,OVCAR-8 ovarian,11500 nM
same,GI50,SNB-19 CNS,6800 nM
same,TGI,SNB-19 CNS,24300 nM
same,GI50,LOX IMVI melanoma,171 nM
same,TGI,LOX IMVI melanoma,326 nM
same,GI50,CAKI-1 renal,1720 nM
same,TGI,CAKI-1 renal,3240 nM
same,GI50,SF-268 CNS,2240 nM
same,TGI,SF-268 CNS,5080 nM
same,GI50,NCI/ADR-RES ovarian,1150 nM
same,TGI,NCI/ADR-RES ovarian,34100 nM
same,GI50,NCI-H226 lung,10400 nM
same,TGI,NCI-H226 lung,36600 nM
same,GI50,OVCAR-4 ovarian,1910 nM
same,TGI,OVCAR-4 ovarian,4280 nM
same,GI50,786-0 renal,211 nM
same,TGI,786-0 renal,427 nM
same,GI50,A498 renal,1800 nM
same,TGI,A498 renal,3660 nM
same,GI50,U251 CNS,2440 nM
same,TGI,U251 CNS,6840 nM
same,GI50,SW-620 colon,2070 nM
same,TGI,SW-620 colon,5080 nM
same,GI50,SK-OV-3 ovarian,3320 nM
same,TGI,SK-OV-3 ovarian,13400 nM
same,GI50,SNB-75 CNS,1110 nM
same,TGI,SNB-75 CNS,2560 nM
same,GI50,HS 578T breast,2040 nM
same,TGI,HS 578T breast,7620 nM
same,GI50,EKVX NSCLC,2250 nM
same,TGI,EKVX NSCLC,5070 nM
same,GI50,IGROV1 ovarian,501 nM
same,TGI,IGROV1 ovarian,1920 nM
same,GI50,TK-10 renal,2150 nM
same,TGI,TK-10 renal,8100 nM
same,GI50,PC-3 prostate,4520 nM
same,TGI,PC-3 prostate,23700 nM
same,GI50,SK-MEL-28 melanoma,4020 nM
same,TGI,SK-MEL-28 melanoma,33700 nM
same,GI50,HOP-92 NSCLC,1430 nM
same,TGI,HOP-92 NSCLC,3000 nM
same,GI50,RXF 393 renal,1250 nM
same,TGI,RXF 393 renal,2910 nM
same,GI50,A549 NSCLC,3890 nM
same,TGI,A549 NSCLC,22500 nM
same,GI50,UACC-62 melanoma,2140 nM
same,TGI,UACC-62 melanoma,8560 nM
same,GI50,SK-MEL-5 melanoma,3600 nM
same,TGI,SK-MEL-5 melanoma,14000 nM
same,GI50,NCI-H23 lung,1300 nM
same,TGI,NCI-H23 lung,2710 nM
same,GI50,HCT-15 colon,2980 nM
same,TGI,HCT-15 colon,14900 nM
same,GI50,HCT-116 colon,1560 nM
same,TGI,HCT-116 colon,3580 nM
same,GI50,SF-295 CNS,1910 nM
same,TGI,SF-295 CNS,3560 nM
same,GI50,UO-31 renal,182 nM
same,TGI,UO-31 renal,341 nM
same,GI50,SN12C renal,5890 nM
same,TGI,SN12C renal,85000 nM
same,GI50,MALME-3M melanoma,1290 nM
same,TGI,MALME-3M melanoma,2850 nM
same,GI50,CCRF-CEM leukemia,414 nM
same,TGI,CCRF-CEM leukemia,1950 nM
same,GI50,HOP-62 NSCLC,2760 nM
same,TGI,HOP-62 NSCLC,15000 nM
same,GI50,DU-145 prostate,2010 nM
same,TGI,DU-145 prostate,6160 nM
same,GI50,UACC-257 melanoma,1550 nM
same,TGI,UACC-257 melanoma,11000 nM
same,GI50,NCI-H522 lung,211 nM
same,TGI,NCI-H522 lung,440 nM
same,GI50,RPMI-8226 leukemia,2030 nM
same,TGI,RPMI-8226 leukemia,7650 nM
same,GI50,HCC-2998 colon,12700 nM
same,TGI,HCC-2998 colon,26100 nM
same,GI50,KM12 colon,3510 nM
same,TGI,KM12 colon,14500 nM
same,GI50,SF-539 CNS,1620 nM
same,TGI,SF-539 CNS,3120 nM
same,GI50,HL-60(TB) leukemia,1660 nM
same,TGI,HL-60(TB) leukemia,4090 nM
same,GI50,K-562 leukemia,3010 nM
same,TGI,K-562 leukemia,12800 nM
same,GI50,SK-MEL-2 melanoma,4580 nM
same,TGI,SK-MEL-2 melanoma,17600 nM
same,GI50,MCF7 breast,3270 nM
same,TGI,MCF7 breast,19600 nM
same,GI50,MDA-MB-435,3700 nM
same,TGI,MDA-MB-435,15900 nM
same,GI50,T-47D breast,2170 nM
same,TGI,T-47D breast,7440 nM
same,GI50,COLO 205 colon,4170 nM
same,TGI,COLO 205 colon,14900 nM
